Laboratory results reported in ChEMBL document CHEMBL1201862, “PubChem BioAssay data set” (2004).
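Interpolation was linear, between the two tested concentrations surrounding the appropriate level; five concentrations were tested over 48 hours in 96-well plates. GI50 = concentration required for 50% inhibition of growth.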 The source made the active and inactive calls. Cut-off read from the data, not from the text of the source: active = GI50 up to about 1.1 µM and inactive = higher.

Tests used:
Assay in all cases: NCI tumour cell line growth inhibition, 48 h
786-0 = test system: 786-0
A498 = test system: A498
A549 = test system: A549
ACHN = test system: ACHN
BT-549 = test system: BT-549
CAKI-1 = test system: CAKI-1
CCRF-CEM = test system: CCRF-CEM
COLO 205 = test system: COLO 205
DU-145 = test system: DU-145
EKVX = test system: EKVX
HCC 2998 = test system: HCC 2998
HCT-116 = test system: HCT-116
HCT-15 = test system: HCT-15
HL-60 = test system: HL-60
HOP-62 = test system: HOP-62
HOP-92 = test system: HOP-92
HT-29 = test system: HT-29
Hs-578T = test system: Hs-578T
IGROV-1 = test system: IGROV-1
K562 = test system: K562
KM12 = test system: KM12
LOX IMVI = test system: LOX IMVI
M14 = test system: M14
MCF7 = test system: MCF7
MDA-MB-231 = test system: MDA-MB-231
MDA-MB-435 = test system: MDA-MB-435
MDA-N = test system: MDA-N
MOLT-4 = test system: MOLT-4
Malme-3M = test system: Malme-3M
NCI-H226 = test system: NCI-H226
NCI-H23 = test system: NCI-H23
NCI-H460 = test system: NCI-H460
NCI-H522 = test system: NCI-H522
NCI/ADR-RES = test system: NCI/ADR-RES
OVCAR-3 = test system: OVCAR-3
OVCAR-4 = test system: OVCAR-4
OVCAR-5 = test system: OVCAR-5
OVCAR-8 = test system: OVCAR-8
PC-3 = test system: PC-3
RPMI-8226 = test system: RPMI-8226
RXF 393 = test system: RXF 393
SF-268 = test system: SF-268
SF-295 = test system: SF-295
SF-539 = test system: SF-539
SK-MEL-28 = test system: SK-MEL-28
SK-MEL-2 = test system: SK-MEL-2
SK-MEL-5 = test system: SK-MEL-5
SK-OV-3 = test system: SK-OV-3
SN12C = test system: SN12C
SNB-19 = test system: SNB-19
SNB-75 = test system: SNB-75
SR = test system: SR
SW-620 = test system: SW-620
T47D = test system: T47D
TK-10 = test system: TK-10
U-251 = test system: U-251
UACC-257 = test system: UACC-257
UACC-62 = test system: UACC-62
UO-31 = test system: UO-31

SMILES: CCc1nc(N)nc(N)c1-c1ccc(N(C)Cc2ccccc2)c([N+](=O)[O-])c1
- GI50 (786-0): 0.0231 µM (active)
- GI50 (A498): 0.552 µM (active)
- GI50 (A549): < 0.01 µM (active)
- GI50 (ACHN): 0.0342 µM (active)
- GI50 (BT-549): 4.9 µM (inactive)
- GI50 (CAKI-1): 0.0706 µM (active)
- GI50 (CCRF-CEM): 0.0237 µM (active)
- GI50 (COLO 205): 0.522 µM (active)
- GI50 (DU-145): 0.215 µM (active)
- GI50 (EKVX): 1.16 µM (inactive)
- GI50 (HCC 2998): 0.345 µM (active)
- GI50 (HCT-116): < 0.01 µM (active)
- GI50 (HCT-15): < 0.01 µM
- GI50 (HL-60): < 0.01 µM (active)
- GI50 (HOP-62): 0.13 µM (active)
- GI50 (HOP-92): 0.962 µM (active)
- GI50 (HT-29): 0.0191 µM (active)
- GI50 (Hs-578T): 10.2 µM (inactive)
- GI50 (IGROV-1): 0.128 µM (active)
- GI50 (K562): < 0.01 µM (active)
- GI50 (KM12): 0.191 µM (active)
- GI50 (LOX IMVI): < 0.0114 µM (active)
- GI50 (M14): 0.064 µM (active)
- GI50 (MCF7): 0.202 µM (active)
- GI50 (MDA-MB-231): 7.67 µM (inactive)
- GI50 (MDA-MB-435): 0.0811 µM (active)
- GI50 (MDA-N): 0.0243 µM (active)
- GI50 (MOLT-4): 0.059 µM (active)
- GI50 (Malme-3M): 2.22 µM (inactive)
- GI50 (NCI-H226): 3.31 µM (inactive)
- GI50 (NCI-H23): 0.0708 µM (active)
- GI50 (NCI-H460): < 0.01 µM (active)
- GI50 (NCI-H522): 1.15 µM (inactive)
- GI50 (NCI/ADR-RES): 0.184 µM (active)
- GI50 (OVCAR-3): 0.697 µM (active)
- GI50 (OVCAR-4): 5.15 µM (inactive)
- GI50 (OVCAR-5): 8.17 µM (inactive)
- GI50 (OVCAR-8): 0.0466 µM (active)
- GI50 (PC-3): 0.0557 µM (active)
- GI50 (RPMI-8226): 0.191 µM (active)
- GI50 (RXF 393): 3.61 µM (inactive)
- GI50 (SF-268): 0.303 µM (active)
- GI50 (SF-295): 0.0522 µM (active)
- GI50 (SF-539): 0.14 µM (active)
- GI50 (SK-MEL-28): 4.79 µM (inactive)
- GI50 (SK-MEL-2): 7.74 µM (inactive)
- GI50 (SK-MEL-5): 0.022 µM (active)
- GI50 (SK-OV-3): 7.62 µM (inactive)
- GI50 (SN12C): 1.34 µM (inactive)
- GI50 (SNB-19): 0.745 µM (active)
- GI50 (SNB-75): 2.22 µM (inactive)
- GI50 (SR): 0.0187 µM (active)
- GI50 (SW-620): 0.0155 µM (active)
- GI50 (T47D): 1.71 µM (inactive)
- GI50 (TK-10): 7.13 µM (inactive)
- GI50 (U-251): 0.0374 µM (active)
- GI50 (UACC-257): 2.58 µM (inactive)
- GI50 (UACC-62): 0.0357 µM (active)
- GI50 (UO-31): 0.458 µM (active)

SMILES: O=C1C2=C(CC3=C(C2)CS(=O)(=O)C3)C(=O)C2=C1CC1=C(C2)CS(=O)(=O)C1
- GI50 (786-0): 25.9 µM (inactive)
- GI50 (A498): 43.7 µM (inactive)
- GI50 (A549): > 90.2 µM (inactive)
- GI50 (ACHN): 36.3 µM (inactive)
- GI50 (BT-549): 18.5 µM (inactive)
- GI50 (CAKI-1): 36 µM (inactive)
- GI50 (CCRF-CEM): 12.8 µM (inactive)
- GI50 (COLO 205): 13 µM (inactive)
- GI50 (DU-145): 48.2 µM (inactive)
- GI50 (EKVX): 33.2 µM (inactive)
- GI50 (HCC 2998): 20.6 µM (inactive)
- GI50 (HCT-116): 11.7 µM (inactive)
- GI50 (HCT-15): 34.1 µM
- GI50 (HL-60): 8.93 µM (inactive)
- GI50 (HOP-62): 20.5 µM (inactive)
- GI50 (HOP-92): > 46.7 µM (inactive)
- GI50 (HT-29): 8.59 µM (inactive)
- GI50 (Hs-578T): > 32.4 µM (inactive)
- GI50 (IGROV-1): 15.4 µM (inactive)
- GI50 (K562): 10.6 µM (inactive)
- GI50 (KM12): > 19.7 µM (inactive)
- GI50 (LOX IMVI): 14.3 µM (inactive)
- GI50 (M14): > 37.7 µM (inactive)
- GI50 (MCF7): 13.2 µM (inactive)
- GI50 (MDA-MB-231): 9.59 µM (inactive)
- GI50 (MDA-MB-435): 9.18 µM (inactive)
- GI50 (MDA-N): 10.3 µM (inactive)
- GI50 (MOLT-4): 23.9 µM (inactive)
- GI50 (Malme-3M): 5.42 µM (inactive)
- GI50 (NCI-H226): 24.4 µM (inactive)
- GI50 (NCI-H23): 23.9 µM (inactive)
- GI50 (NCI-H460): > 31.5 µM (inactive)
- GI50 (NCI-H522): 11.3 µM (inactive)
- GI50 (NCI/ADR-RES): 16.3 µM (inactive)
- GI50 (OVCAR-3): 3.35 µM (inactive)
- GI50 (OVCAR-4): 10.9 µM (inactive)
- GI50 (OVCAR-5): 43.4 µM (inactive)
- GI50 (OVCAR-8): 24.2 µM (inactive)
- GI50 (PC-3): 10.8 µM (inactive)
- GI50 (RPMI-8226): 28.6 µM (inactive)
- GI50 (RXF 393): 27.3 µM (inactive)
- GI50 (SF-268): > 26.4 µM (inactive)
- GI50 (SF-295): 26.7 µM (inactive)
- GI50 (SF-539): 36.3 µM (inactive)
- GI50 (SK-MEL-28): > 43.1 µM (inactive)
- GI50 (SK-MEL-2): 32.4 µM (inactive)
- GI50 (SK-MEL-5): 16.3 µM (inactive)
- GI50 (SK-OV-3): 38.5 µM (inactive)
- GI50 (SN12C): 15.3 µM (inactive)
- GI50 (SNB-19): 17.7 µM (inactive)
- GI50 (SNB-75): > 20.9 µM (inactive)
- GI50 (SR): 4.4 µM (inactive)
- GI50 (SW-620): 18 µM (inactive)
- GI50 (T47D): 2.34 µM (inactive)
- GI50 (TK-10): 48.9 µM (inactive)
- GI50 (U-251): 13.5 µM (inactive)
- GI50 (UACC-257): 29 µM (inactive)
- GI50 (UACC-62): 15.8 µM (inactive)
- GI50 (UO-31): 38.1 µM (inactive)
